# In article PMC12057046, “Elucidation of short linear motif-based interactions of the MIT and rhodanese domains of the ubiquitin-specific protease 8” (Biology Direct, 2025):
# Tested on: USP8 MIT domain
# Experiment: Peptide-phage display-based deep mutational scanning (DMS), USP8 MIT domain
# Format: binding, human
# Conditions: bait USP8_MIT__P40818_1_142; EFCAB12 (Q6NXP0) 2-17; pair of mutant with wild-type wt_00016 (MDDDYEAYHSLFLSLL); sheet S3.B_ProP-PD_pairs
# Procedure: The residues of these 16 amino acid-long wild-type peptides were substituted to all natural amino acid residues, except cysteine, in all positions (Supplementary Table S2A). The designed peptide sequences were reverse-translated to oligonucleotides optimized to the codon usage of E. coli. The required flanking regions (5´[…] and 3´[…]) were added for library construction. The library was generated as previously described.
# Four rounds of phage selections were carried out using the second generation human disorderome library or the constructed deep mutational scanning library. At least three individual replicates were used for each bait protein. 10 µg of GST-tagged proteins or GST control (diluted in PBS from the stock of proteins kept in the purification elution buffer) were immobilized in 100 µL PBS on a 96-well MaxiSorp (Nunc) plate overnight at 4 °C. The plates were incubated with blocking buffer (with 0.5% BSA in PBS) for 1 h at 4 °C followed by washing with 0.05% Tween 20 in PBS four times. The naïve phage library (10^11 CFU) was diluted in 1/5th volume PEG/NaCl (20% PEG-8000, 0.4 M NaCl) and 1X PBS, incubated on ice for 10 min and centrifuged at 10,000 [drawing 3] g for 10 min. The pellet was resuspended in the volume of PBS (100 µL/ well). The GST-coated control plate was incubated with 100 µL library per well in PBS for 1 h at 4 °C to remove non-specific binders. The supernatant was transferred to the target wells and incubated for 2 h at 4 °C. The wells were washed five times with 0.05% Tween 20 in PBS and the bound phages were eluted with 100 µL per well log-phase E. coli OmniMAX by incubating at 37° C while shaking. After 30 min, M13KO7 helper phages were added and incubated for an additional 45 min. The bacterial cultures were transferred to 1 mL 2YT supplemented with 100 µg/mL carbenicillin, 30 µg/mL kanamycin and 0.3 mM IPTG and grew overnight at 37 °C while shaking. The following day the cultures were centrifuged for 10 min at 2,000 [drawing 4] g, 4 °C. 1/10th volume of 10 [drawing 5] PBS was added to adjust the pH and heated at 65 °C for 10 min. The phage pools from each round were used as in-phages for the next round of selections.
# The samples were prepared for NGS as previously described. Peptide-coding regions of the enriched phage pools were amplified and barcoded using Phusion High-Fidelity PCR Master Mix (Thermo Fisher) for 22 cycles and confirmed by 2% agarose gel electrophoresis. The PCR products were normalized with 25 µL Mag-bind Total Pure NGS beads (Omega Biotek) and 10 µL of each eluted sample (Qiagen Elution Buffer) was pooled and cleaned-up with a PCR purification kit (Qiagen). The PCR product was confirmed by 2% agarose electrophoresis and the band was extracted with QIAquick Gel extraction Kit (Qiagen) and eluted with 30 µL TE buffer. The dsDNA was quantified using QuantiT PicoGreen dsDNA Assay Kit (Thermo Fisher) and sent for NGS (Illumina MiSeq v3, 1 × 150 bp read setup, 20% PhiX, NGI SciLifeLab facility, Sweden). The NGS data were demultiplexed, adapter regions were trimmed and sequences with an average quality of at least 20 were translated to peptide sequences. The NGS data were analysed using custom Python scripts. The total read NGS counts for each selection experiment of each peptide sequence were compiled and annotated in PepTools (https://slim.icr.ac.uk/tools/peptools/). Since ProP-PD is in essence a competition assay, the possibility of the input phage library influencing the selection outcome was explored. For this, the Pearson correlation coefficient, p-value and coefficient of determination were calculated for all peptide NGS count fractions in the library coverage vs. in the selections results (Supplementary Fig. S7; Supplementary Table S2B; Supplementary Table S3B; Supplementary Table S7B). Pearson correlation coefficient and p-value were calculated using Python’s SciPy library. […]
row,Sequence,hit_pair_ratio
1,MDDDYWAYHSLFLSLL [mut_04427],2.20
2,MDDDYYAYHSLFLSLL [mut_04428],1.20
3,MDDEYEAYHSLFLSLL [mut_04376],3.28
4,MDDFYEAYHSLFLSLL [mut_04377],337.92
5,MDDGYEAYHSLFLSLL [mut_04378],3.46
6,MDDHYEAYHSLFLSLL [mut_04379],28.27
7,MDDKYEAYHSLFLSLL [mut_04381],84.82
8,MDDLYEAYHSLFLSLL [mut_04382],337.92
9,MDDNYEAYHSLFLSLL [mut_04384],33.79
10,MDDPYEAYHSLFLSLL [mut_04385],4.13
11,MDDQYEAYHSLFLSLL [mut_04386],42.28
12,MDDRYEAYHSLFLSLL [mut_04387],84.48
13,MDDSYEAYHSLFLSLL [mut_04388],4.76
14,MDDTYEAYHSLFLSLL [mut_04389],15.92
15,MDDWYEAYHSLFLSLL [mut_04391],51.65
16,MDDYYEAYHSLFLSLL [mut_04392],56.39
17,MDEDYEAYHSLFLSLL [mut_04358],3.08
18,MDFDYEAYHSLFLSLL [mut_04359],112.94
19,MDGDYEAYHSLFLSLL [mut_04360],5.59
20,MDHDYEAYHSLFLSLL [mut_04361],6.06
21,MDIDYEAYHSLFLSLL [mut_04362],337.92
22,MDLDYEAYHSLFLSLL [mut_04364],2.51
23,MDMDYEAYHSLFLSLL [mut_04365],84.82
24,MDNDYEAYHSLFLSLL [mut_04366],19.88
25,MDPDYEAYHSLFLSLL [mut_04367],337.92

row,Sequence,hit_pair_ratio
1,MDQDYEAYHSLFLSLL [mut_04368],8.05
2,MDSDYEAYHSLFLSLL [mut_04370],42.24
3,MDTDYEAYHSLFLSLL [mut_04371],112.94
4,MDVDYEAYHSLFLSLL [mut_04372],7.68
5,MDWDYEAYHSLFLSLL [mut_04373],2.57
6,MDYDYEAYHSLFLSLL [mut_04374],42.41
7,MEDDYEAYHSLFLSLL [mut_04340],16.11
8,MFDDYEAYHSLFLSLL [mut_04341],4.97
9,MGDDYEAYHSLFLSLL [mut_04342],337.92
10,MHDDYEAYHSLFLSLL [mut_04343],337.92
11,MIDDYEAYHSLFLSLL [mut_04344],337.92
12,MKDDYEAYHSLFLSLL [mut_04345],25.99
13,MLDDYEAYHSLFLSLL [mut_04346],33.93
14,MMDDYEAYHSLFLSLL [mut_04347],37.58
15,MNDDYEAYHSLFLSLL [mut_04348],14.75
16,MPDDYEAYHSLFLSLL [mut_04349],168.96
17,MQDDYEAYHSLFLSLL [mut_04350],169.63
18,MRDDYEAYHSLFLSLL [mut_04351],4.58
19,MSDDYEAYHSLFLSLL [mut_04352],67.69
20,MVDDYEAYHSLFLSLL [mut_04354],6.06
21,MYDDYEAYHSLFLSLL [mut_04356],67.58
22,NDDDYEAYHSLFLSLL [mut_04330],17.85
23,PDDDYEAYHSLFLSLL [mut_04331],10.25
24,QDDDYEAYHSLFLSLL [mut_04332],3.38
25,SDDDYEAYHSLFLSLL [mut_04334],56.39

# Same assay, conditions: bait USP8_MIT__P40818_1_142; MLPH 482-497; ratio of averaged fractions of wild-type/mutant peptide pair, larger over smaller (direction to be read from the two fractions)
row,Sequence,hit_pair_ratio
1,SEVADIESRIAALRAA,7.79
2,SEVEDIESRIAALRAA,7.79
3,SEVFDIESRIAALRAA,1.56
4,SEVGDIESRIAALRAA,2.28
5,SEVHDIESRIAALRAA,28.09
6,SEVIDIESRIAALRAA,6.39
7,SEVKDIESRIAALRAA,8.70
8,SEVLDIESRIAALRAA,9.47
9,SEVMDIESRIAALRAA,4.36
10,SEVNDIESRIAALRAA,7.79
11,SEVQDIESRIAALRAA,3.89
12,SEVRDIESRIAALRAA,4.05
13,SEVSDDESRIAALRAA,7.79
14,SEVSDFESRIAALRAA,49.08
15,SEVSDHESRIAALRAA,1.54
16,SEVSDIEDRIAALRAA,4.82
17,SEVSDIEERIAALRAA,7.79
18,SEVSDIEGRIAALRAA,2.60
19,SEVSDIEHRIAALRAA,4.62
20,SEVSDIELRIAALRAA,4.11
21,SEVSDIEMRIAALRAA,7.10
22,SEVSDIENRIAALRAA,1.11
23,SEVSDIEPRIAALRAA,7.79
24,SEVSDIEQRIAALRAA,1.11

row,Sequence,hit_pair_ratio
1,SEVSDIERRIAALRAA,1.35
2,SEVSDIESREAALRAA,3.89
3,SEVSDIESRFAALRAA,9.56
4,SEVSDIESRIAAARAA,3.89
5,SEVSDIESRIAALHAA,1.15
6,SEVSDIESRIAALIAA,3.61
7,SEVSDIESRIAALLAA,9.42
8,SEVSDIESRIAALRAF,7.79
9,SEVSDIESRIAALRAI,17.25
10,SEVSDIESRIAALRAL,1.15
11,SEVSDIESRIAALRAM,108.17
12,SEVSDIESRIAALRAV,1.51
13,SEVSDIESRIAALRAY,1.28
14,SEVSDIESRIAALREA,7.79
15,SEVSDIESRIAALRMA,17.19
16,SEVSDIESRIAALRNA,7.79
17,SEVSDIESRIAALRWA,7.79
18,SEVSDIESRIAALRYA,7.79
19,SEVSDIESRIAALTAA,7.79
20,SEVSDIESRIAALVAA,18.10
21,SEVSDIESRIAASRAA,1.95
22,SEVSDIESRIAATRAA,7.79
23,SEVSDIESRIAAWRAA,2.60
24,SEVSDIESRIAELRAA,1.95

# Same assay, conditions: sheet S3.B_ProP-PD_pairs; bait USP8_MIT__P40818_1_142; ratio within the wild-type/mutant pair, larger over smaller averaged fraction (direction from fraction_wt and fraction_mut)
row,Sequence,hit_pair_ratio
1,MEVSDIESRIAALRAA,2.60
2,NEVSDIESRIAALRAA,11.09
3,PEVSDIESRIAALRAA,7.79
4,QEVSDIESRIAALRAA,2.44
5,SDVSDIESRIAALRAA,11.31
6,SEASDIESRIAALRAA,1.11
7,SEESDIESRIAALRAA,7.79
8,SEFSDIESRIAALRAA,1.28
9,SEGSDIESRIAALRAA,7.79
10,SEISDIESRIAALRAA,2.51
11,SELSDIESRIAALRAA,11.85
12,SEPSDIESRIAALRAA,2.03
13,SEQSDIESRIAALRAA,5.24
14,SESSDIESRIAALRAA,3.89
15,SETSDIESRIAALRAA,1.00
